One block for each compound: values may come before it.
Legend:
[1] = clinical study of skin brightening and skin redness (chromameter readings); assay type: in vivo, human; conditions: 0.3% emulsion twice daily
Experimental: The skin brightening efficacy of p-HCA in ethoxydyglycol versus kojic acid also was tested in a clinical study. In this study, an emulsion containing 0.3%, by weight, p-HCA or kojic acid was used on twenty, mostly female, subjects between the ages of 30 to 50 years. The test composition was applied to the abdomen twice daily (a.m. and p.m.). The test was conducted for eight weeks, and chromameter readings were taken at baseline, and after 2, 4, 6, and 8 weeks.

[2] = metabolism of p-HCA in homogenized human skin; assay type: in vitro ADME; conditions: eight hours of incubation with skin enzymes, 37° C.
Experimental: First, to confirm in vivo activity of p-HCA, the metabolism of p-HCA in the skin was determined. In this test, human skin was homogenized in a PBS (phosphate-buffered saline)-ethanol solution, followed by dissolution of p-HCA. The solution was incubated at 37° C. for 8 hours. Samples were taken after 0, 4, and 8 hours, and were centrifuged. The supernatant was filtered and analyzed by HPLC. […] The amount of p-HCA that is metabolized was considered insignificant with respect to an efficacious treatment of hyperpigmentation.

[3] = solubility of p-HCA in various solvents (HPLC); assay type: physicochemical
Experimental: Various solvents were tested for an ability to dissolve p-HCA and provide a suitable composition for topical application to efficaciously treat hyperpigmentation, e.g., to allow the HCA to permeate the surface of the skin and deposit the p-HCA at the site of melanin formation. p-HCA was added to various solvents, then sonicated for two hours at 35° C. until no further HCA was dissolved. The samples were cooled to room temperature (25° C.) and allowed to stabilize for 15 hours. The undissolved p-HCA was allowed to settle, the supernatant liquid was filtered through a 0.2 micron syringe filter. Approximately 0.08 g of this filtered material was weighed into a 25 ml volumetric flask and diluted to volume with HPLC mobile phase. Two standards were analyzed by HPLC and compared to the two samples. All samples were analyzed by HPLC on a Hypersil ODS C18 column using water, methanol, glacial acetic acid (55:45:1) as the mobile phase. The flow rate was 1 ml/min and the wavelength for detection was 270 nm.

[4] = skin penetration, Franz diffusion cells; assay type: in vitro ADME, human
Experimental: In another experiment, a 10% solution of p-HCA in ethoxydiglycol first was prepared. This solution was added to a skin care emulsion in a sufficient amount to provide either 0.3% or 0.1%, by weight, of p-HCA in the final composition. As a comparative example, 0.3%, by weight, of solid p-HCA was added to the same skin care emulsion. The skin care emulsion to which solid p-HCA or the p-HCA solution was added had the following formula (w/w%): • 85.35 water • 0.2 methylparaben • 0.35 xanthan gum • 5.0 butylene glycol • 4.0 sesame oil • 2.5 glyceryl stearate • 0.5 PEG-150 distearate • 1.25 neopentyl glycol dicaprylate/dicaprate • 0.6 emulsifying wax • 0.25 imidazolidinyl urea.
The skin care emulsions containing p-HCA were applied to cadaver skin. Skin penetration of p-HCA was studied using Franz diffusion cells, n=5 (Permegear, Bethlehem, Pa.). The receptor contained an isotonic phosphate buffer with 30% ethanol, and was stirred continuously at 600 rpm. Samples of dermatomed human cadaver skin (NDRA, Philadelphia) were placed on the cells and prehydrated for 1 hour prior to the experiment. One milliliter of each formulation was added to the donor compartment of each cell, which was covered tightly with PARAFIL®. Samples (300 μl) were withdrawn from the receptor compartment every hour over 8 hours, and replaced with 300 μl of fresh receptor solution. After 8 hours, the skin was removed and cut into small pieces. The skin pieces were homogenized using a Kinematica POLYTRON® homogenizer and centrifuged. The supernatant was filtered through 0.22μ filters, and the p-HCA content was quantified.
All samples were analyzed by HPLC on a Hypersil ODS C18 column using water, methanol, glacial acetic acid (55:45:1) as the mobile phase at a flow rate of 1 ml/min and detection at 270 nm. Lag time and flux were obtained from permeation profiles and skin drug content also was recorded.
This experiment was repeated using PEG-4 as the solvent for the p-HCA.
The method used to determine skin permeability was the Franz diffusion method disclosed above. […] In particular, 3.9 mcg/ml of p-HCA was found in the receptor compartment of the skin (i.e., permeated through the skin) as opposed to 16.3 mcg/ml p-HCA found within the skin.

[5] = ethoxydiglycol vs solid p-HCA, FIG. 1 and Table 1
[6] = formula: 0.5% p-HCA, 53% ethanol, Carbopol 981, glycerin, triethanolamine, water
[7] = in presence of ethoxydiglycol vs powder form

effect on skin redness ([1]; throughout the eight-week clinical trial): did not reduce redness
effect on skin redness ([1]; weeks 4 and 8): induced redness
Structure (SMILES): O=c1cc(CO)occ1O [kojic acid]

p-HCA metabolized [2]: 3.6%
solubility in 30% hydroethanolic solution ([3]; 30% hydroethanolic solution, 25° C.): 0.75 wt %
solubility in PEG-4 ([3]; PEG-4, 25° C.): 18.5 wt %
solubility in PEG-6 ([3]; PEG-6, 25° C.): 19.7 wt %
solubility in PEG-8 ([3]; PEG-8, 25° C.): 19.7 wt %
solubility in butylene glycol ([3]; butylene glycol, 25° C.): 2.25 wt %
solubility in diethylene glycol ([3]; diethylene glycol, 25° C.): 18.1 wt %
solubility in ethanol ([3]; ethanol, 25° C.): 14.8 wt %
solubility in ethoxydiglycol ([3]; ethoxydiglycol, 25° C.): 19.7 %, by weight
solubility in glycereth-26 ([3]; glycereth-26, 25° C.): 7 wt %
solubility in pentylene glycol ([3]; pentylene glycol, 25° C.): 1.75 wt %
solubility in silicone fluid DC 193 ([3]; silicone fluid DC 193, 25° C.): 4.7 wt %
deposition of p-HCA on the skin compared to a control ([4]; PEG-4 as the solvent for the p-HCA): significantly increased
elevation of deposition of p-HCA in the skin [4, 5]: 93%
increase of flux into the skin [4, 5]: 107%
amount of HCA deposited in the skin relative to amount transmitted through the skin [4, 6]: four times greater
p-HCA found in the receptor compartment (permeated through the skin) [4, 6]: 3.9 µg/mL
p-HCA found within the skin [4, 6]: 16.3 µg/mL
change of flux of p-HCA through the skin [4, 7]: doubled
elevation of percent of p-HCA that permeates cadaver skin [4, 7]: 43%
elevation of percentage of p-HCA that remained within the skin [4, 7]: about 50%
Structure (SMILES): O=C(O)C=Cc1ccc(O)cc1 [p-HCA, p-hydroxycinnamic acid]

From patent US20070166251A1, “Composition and method for treating hyperpigmented skin” (LIPO CHEMICALS INC., priority 2005, published 2007)
